Several values for one entry are separate records, joined by “and”; a condition that tells them apart may be missing. Equal entries are not always repeated.
Tests used:
[1] = tested on: CUG RNA foci in primary DM1 patient myoblasts; assay: DOUBLE-cut screening: FISH staining of RNA foci in primary DM1 patient myoblasts; format: cell-based, human; settings: sgRNA pair RNP, 72 hrs post nucleofection; for % of CUG foci free nuclei (DNA-PKi): 3 μM Compound 6 for 48 hrs; for % of CUG foci free nuclei (Vehicle): DMSO 48 hrs
Method in brief: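 Primary DM1 patient myoblasts nucleofected with paired upstream/downstream sgRNA–SaCas9 RNPs (20 pmol protein, 60 pmol sgRNA each), then treated 48 hrs with DMSO or 3 μM DNA-PK inhibitor. At 72 hrs post nucleofection, CUG foci stained by Cy3-PNA(CAG)5 FISH with MBNL1 co-staining and quantified by high-content confocal imaging.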

[2] = tested on: CTG repeat expansion in the 3′ UTR of human DMPK gene; assay: DOUBLE-cut screening: CTG repeat excision by loss-of-signal ddPCR in primary DM1 patient myoblasts; format: cell-based; settings: sgRNA pair RNP, mean of upstream and downstream ddPCR assays; for % of CTG repeat excision efficiency by ddPCR (DNA-PKi): 3 μM Compound 6 for 48 hrs; for % of CTG repeat excision efficiency by ddPCR (Vehicle): DMSO 48 hrs
Method in brief: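 Paired upstream/downstream sgRNAs, each as RNP with recombinant SaCas9 (20 pmol protein:60 pmol sgRNA), mixed 1:1 and nucleofected into primary DM1 myoblasts; cells then given DMSO or 3 μM DNA-PKi Compound 6 for 48 hrs. Genomic DNA taken 72 hrs post-nucleofection; excision is mean of upstream and downstream loss-of-signal ddPCR, normalized to DMPK exon 1 reference.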

Substance | % of CUG foci free nuclei (DNA-PKi) [1] | % of CUG foci free nuclei (Vehicle) [1] | % of CTG repeat excision efficiency by ddPCR (DNA-PKi) [2] | % of CTG repeat excision efficiency by ddPCR (Vehicle) [2]
SaU4 + SaD19: SaCas9 sgRNA pair, SEQ ID NOs: 4 and 27 (guide 1 CCAGTTCACAACCGCTCCGAGC; guide 2 AGGACCCCCACCCCCGACCCTC; listed as DNA, chemistry not fully specified) | 80.80% | 67.92% | 50.21% | 36.41%
SaU4 + SaD20: SaCas9 sgRNA pair, SEQ ID NOs: 4 and 28; printed twice in Table 4 (guide 1 CCAGTTCACAACCGCTCCGAGC; guide 2 AGATGGAGGGCCTTTTATTCGC; listed as DNA, chemistry not fully specified) | 84.77% and 83.56% | 59.76% and 81.47% | 65.25% and 59.19% | 53.12% and 52.49%
SaU7 + SaD4: SaCas9 sgRNA pair, SEQ ID NOs: 7 and 12 (guide 1 CGCGGCCGGCGAACGGGGCTCG; guide 2 ACTTTGCGAACCAACGATAGGT; listed as DNA, chemistry not fully specified) | 87.34% | 74.84% | 73.99% | 57.96%
SaU7 + SaD5: SaCas9 sgRNA pair, SEQ ID NOs: 7 and 13 (guide 1 CGCGGCCGGCGAACGGGGCTCG; guide 2 GGGTTTGGCAAAAGCAAATTTC; listed as DNA, chemistry not fully specified) | 82.27% | 64.24% | 69.71% | 50.76%
SaU7 + SaD6: SaCas9 sgRNA pair, SEQ ID NOs: 7 and 14 (guide 1 CGCGGCCGGCGAACGGGGCTCG; guide 2 CTTTTGCCAAACCCGCTTTTTC; listed as DNA, chemistry not fully specified) | 67.73% | 24.89% | 55.71% | 22.54%
SaU7 + SaD7: SaCas9 sgRNA pair, SEQ ID NOs: 7 and 15 (guide 1 CGCGGCCGGCGAACGGGGCTCG; guide 2 GGGGCGCGGGATCCCCGAAAAA; listed as DNA, chemistry not fully specified) | 85.03% | 41.68% | 64.88% | 32.55%
SaU7 + SaD12: SaCas9 sgRNA pair, SEQ ID NOs: 7 and 20 (guide 1 CGCGGCCGGCGAACGGGGCTCG; guide 2 TCAGTGCATCCAAAACGTGGAT; listed as DNA, chemistry not fully specified) | 86.06% | 66.41% | 62.84% | 39.71%
SaU7 + SaD15: SaCas9 sgRNA pair, SEQ ID NOs: 7 and 23 (guide 1 CGCGGCCGGCGAACGGGGCTCG; guide 2 GACAATAAATACCGAGGAATGT; listed as DNA, chemistry not fully specified) | 89.69% | 64.62% | 66.66% | 36.65%
SaU7 + SaD17: SaCas9 sgRNA pair, SEQ ID NOs: 7 and 25 (guide 1 CGCGGCCGGCGAACGGGGCTCG; guide 2 TTTATTCGCGAGGGTCGGGGGT; listed as DNA, chemistry not fully specified) | 75.53% | 36.12% | 55.97% | 27.41%
SaU7 + SaD18: SaCas9 sgRNA pair, SEQ ID NOs: 7 and 26 (guide 1 CGCGGCCGGCGAACGGGGCTCG; guide 2 GGGCCTTTTATTCGCGAGGGTC; listed as DNA, chemistry not fully specified) | 73.07% | 23.22% | 48.08% | 19.71%
SaU7 + SaD19: SaCas9 sgRNA pair, SEQ ID NOs: 7 and 27 (guide 1 CGCGGCCGGCGAACGGGGCTCG; guide 2 AGGACCCCCACCCCCGACCCTC; listed as DNA, chemistry not fully specified) | 81.47% | 42.75% | 56.22% | 28.45%
SaU7 +SaD3: SaCas9 sgRNA pair, SEQ ID NOs: 7 and 11 (guide 1 CGCGGCCGGCGAACGGGGCTCG; guide 2 CAACGATAGGTGGGGGTGCGTG; listed as DNA, chemistry not fully specified) | 80.45% | 39.24% | 61.82% | 41.26%
SaU7 +SaD11: SaCas9 sgRNA pair, SEQ ID NOs: 7 and 19 (guide 1 CGCGGCCGGCGAACGGGGCTCG; guide 2 CAAAACGTGGATTGGGGTTGTT; listed as DNA, chemistry not fully specified) | 73.38% | 36.96% | 51.90% | 25.10%
SaU7 +SaD13: SaCas9 sgRNA pair, SEQ ID NOs: 7 and 21 (guide 1 CGCGGCCGGCGAACGGGGCTCG; guide 2 CCCAACAACCCCAATCCACGTT; listed as DNA, chemistry not fully specified) | 78.52% | 28.69% | 55.97% | 25.62%
SaU7 +SaD20: SaCas9 sgRNA pair, SEQ ID NOs: 7 and 28 (guide 1 CGCGGCCGGCGAACGGGGCTCG; guide 2 AGATGGAGGGCCTTTTATTCGC; listed as DNA, chemistry not fully specified) | 83.24% | 63.33% | 67.93% | 39.72%
SaU8 + SaD5: SaCas9 sgRNA pair, SEQ ID NOs: 8 and 13 (guide 1 GGCTCGAAGGGTCCTTGTAGCC; guide 2 GGGTTTGGCAAAAGCAAATTTC; listed as DNA, chemistry not fully specified) | 84.28% | 72.77% | 58.77% | 49.47%
SaU8 + SaD6: SaCas9 sgRNA pair, SEQ ID NOs: 8 and 14 (guide 1 GGCTCGAAGGGTCCTTGTAGCC; guide 2 CTTTTGCCAAACCCGCTTTTTC; listed as DNA, chemistry not fully specified) | 65.28% | 32.43% | 40.19% | 23.57%
SaU8 + SaD7: SaCas9 sgRNA pair, SEQ ID NOs: 8 and 15 (guide 1 GGCTCGAAGGGTCCTTGTAGCC; guide 2 GGGGCGCGGGATCCCCGAAAAA; listed as DNA, chemistry not fully specified) | 82.90% | 52.92% | 53.42% | 38.19%
SaU8 + SaD12: SaCas9 sgRNA pair, SEQ ID NOs: 8 and 20 (guide 1 GGCTCGAAGGGTCCTTGTAGCC; guide 2 TCAGTGCATCCAAAACGTGGAT; listed as DNA, chemistry not fully specified) | 85.37% | 76.92% | 55.46% | 36.64%
